Like-named read-outs stand apart in the source and are kept apart here.
Legend:
[1] = set-up: method as in British Biotech, unpublished data; conditions: marmosets; ref British Biotech, unpublished data; cited from earlier work
gelatinase A = conditions: background data, no reference given; read-out: IC50 against gelatinase A; cited from earlier work
B16-BL6 murine melanoma = tested on: B16-BL6 murine melanoma; set-up: method as in British Biotech, unpublished data; conditions: B16-BL6 murine melanoma model; ref British Biotech, unpublished data; cited from earlier work
[2] = tested on: MDA-435 human breast carcinoma; set-up: method as in British Biotech, unpublished data; conditions: MDA-435 human breast carcinoma model; ref British Biotech, unpublished data; cited from earlier work
[3] = Phase I dose-escalation study: DLT, MTD and adverse events
Method: Patients over the age of 18 were required to be of ECOG performance status 0, 1 or 2, and to have a predicted survival of at least 3 months.
This was a phase I, open-label, dose-escalation study. BB-3644 was supplied as capsules comprising 5, 10, 20 and 40 mg BB-3644 (with maize starch, colloidal silica, magnesium stearate and lactose) by British Biotech Pharmaceuticals Ltd, UK. BB-3644 was administered orally twice daily for 84 days to cohorts of patients at doses 5, 10, 20 and 30 mg. […] Dose-limiting toxicity was defined as ‘an adverse reaction likely to be caused by the study drug and unlikely to be attributed to concurrent disease or other drugs or chemicals’. Essentially, any toxicity graded by CTC criteria as at least grade II was considered to be a DLT, as this could preclude chronic oral administration of a drug. If one patient experienced DLT, the cohort size was increased to six patients for that dose level. Further dose escalation was performed, provided that no more than […] patients experienced DLT by day 28. Nine patients were to be treated at the highest dose level. Patients experiencing DLT were eligible to continue treatment at a reduced dose following resolution of toxicity.
Physical examination, chest radiograph, haematology and serum chemistry were checked at baseline, every 4 weeks and at study termination. […] Patients were also reviewed by an opthalmologist at these times, to check the visual acuity, visual fields, and examine the whole eye and the fundi.

[4] = tested on: processing of cell-bound TNF-α; conditions: relative to marimastat; background data, no reference given; cited from earlier work
collagenase-3 = conditions: background data, no reference given; read-out: IC50 against collagenase-3; cited from earlier work
[5] = rhesus monkey, in vivo; cited from earlier work
enkephalinase = conditions: background data, no reference given; read-out: IC50 against enkephalinase; cited from earlier work
[6] = cited from earlier work
solid tumours = experiment: Assessment of response in the phase I study; type: in vivo, patients
Method: Disease assessment was performed at baseline and repeated at 84 days or at withdrawal from the study. Patients were reviewed 4 weeks after withdrawal from the study.
Response was formally assessed radiologically after 3 months of therapy.

clinical = conditions: human, in vivo; for half-life: T1/2; for AUC(0-t): AUC0–24
Method: Blood samples were collected in heparinised tubes before treatment, every 15 min for 2 h, at 2 h 30 min, 3, 4, 6, 8, 10 and 24 h on days 1 and 14 for the measurement of BB-3644. Blood samples were kept on ice. They were centrifuged at 4°C (1500 g for 10 min) within 30 min of collection. The supernatant plasma was collected and frozen at −70°C or cooler, until sent for analysis. Samples were analysed centrally in the Department of Drug Metabolism and Pharmacokinetics at British Biotech, UK.
Samples were analysed for BB-3644 content using a validated reverse-phase HPLC method with mass spectrometric detection. The limit of quantification was 1 ng ml^−1. The data were analysed using WinNonlin v2.1 Standard version (Pharsight Corporation, USA). PK parameters were derived from individual plasma concentration–time data, using noncompartmental analysis.
On the days of PK sampling, only the morning dose of BB-3644 was taken.

[7] = tested on: HODP.IP rat mammary carcinoma cells; set-up: method as in British Biotech, unpublished data; conditions: lung colonisation model, ref British Biotech, unpublished data; cited from earlier work
[8] = ref Wojtowicz-Praga et al, 1998, cited from earlier work
[9] = of the 13 patients that completed 12 weeks of therapy

For CO[C@H](C(=O)NO)[C@@H](CC(C)C)C(=O)N[C@H](C(=O)Nc1ccccn1)C(C)(C)C [BB-3644], the joint toxicity [1] is given as “induced inflammation of joint ligaments and tendons”, the principal toxicity [1] is given as “cell debris in the gall bladder, with mucosal erosions and epithelial hyperplasia” and the IC50 (gelatinase A) is given as 80 nM. For the same compound, the “activity in inhibiting tumour growth” value (B16-BL6 murine melanoma) was “activity in inhibiting tumour growth”, the “activity in inhibiting tumour growth” value [2] was “activity in inhibiting tumour growth” and the “maximum tolerated dose (MTD)” value ([3]; 28 days of oral treatment) was 20 mg bd. The “maximum tolerated dose (MTD)” value ([3]; chronic oral dosing (>28 days, up to 84 days)) was 5 mg bd, the “patients with musculoskeletal DLTs (number)” value ([3]; human, in vivo, 84 days) was 14 and the “patients with musculoskeletal DLTs (share)” value ([3]; human, in vivo, 84 days) was 64%. The “SAE considered possibly related to the study drug” value ([3]; in vivo) was “thromboembolic episodes”, the “ophthalmological or gall bladder-related toxicity” value ([3]; in vivo) was “no significant opthalmological or gall bladder-related toxicity” and the “patients who developed phlebitis” value ([3]; in vivo) was “Two”. The “patients with dose-limiting malaise (NCI CTC toxicity >grade 1)” value ([3]; in vivo) was “Two”, the “dose-limiting toxicity (DLT), nature” value ([3]; in vivo, po) was “musculoskeletal pain” and the “fold more active than marimastat in inhibiting the processing of cell-bound TNF-α” value [4] was > 10 fold. For the same compound, the IC50 (collagenase-3) was 3 nM, the principal toxicity [5] was “cell debris in the gall bladder, with mucosal erosions and epithelial hyperplasia” and the IC50 (enkephalinase) was 40 nM. For the same compound, the “toxicity at higher doses” value ([6]; dog, in vivo) was “Encephalopathy”, the ocular changes ([6]; dogs, ref British Biotech, unpublished data) was “conjunctival hyperaemia, chemosis, corneal stromal limbal vascularisation and diffuse corneal haze and flocculation” and the “therapeutic activity, overall conclusion” value (solid tumours; 22 patients, 5 to 30 mg bd) was “no evidence of beneficial therapeutic activity”. For the same compound, the “patients with progressive disease radiologically” value (solid tumours; [9]) was 11, the “patients with stable disease radiologically” value (solid tumours; [9]) was “two” and the “time to mean maximal concentration, range over dose levels” value (clinical) was 30 to 90 min. It also gave a T1/2 (clinical; 5 mg) of 4 h, a Tmax (clinical; 5 mg) of 1 h and a half-life (clinical; 5 mg) of 2 h. The Tmax (clinical; 5 mg, Tmax) was 0.75 h, the Cmax (clinical; 10 mg) was 179 ng/mL and the T1/2 (clinical; 10 mg) was 2.5 h. The Tmax (clinical; 10 mg) was 1 h, the Cmax (clinical; 10 mg, Cmax) was 114 ng/mL and the half-life (clinical; 10 mg) was 1.5 h. For the same compound, the Tmax (clinical; 10 mg, Tmax) was 0.5 h, the “AUC0–24” value (clinical; 20 mg) was 1248 ng·h/mL and the Cmax (clinical; 20 mg) was 282 ng/mL. It also gave a T1/2 (clinical; 20 mg) of 3 h, a Tmax (clinical; 20 mg) of 0.75 h and an AUC(0-t) (clinical; 20 mg) of 781 ng·h/mL. For the same compound, the Cmax (clinical; 20 mg, Cmax) was 232 ng/mL, the half-life (clinical; 20 mg) was 1.5 h and the Tmax (clinical; 20 mg, Tmax) was 0.5 h. For the same compound, the “AUC0–24” value (clinical; 30 mg) was 4401 ng·h/mL, the Cmax (clinical; 30 mg) was 536 ng/mL and the Tmax (clinical; 30 mg) was 1.75 h. The AUC(0-t) (clinical; 30 mg) was 2520 ng·h/mL, the Cmax (clinical; 30 mg, Cmax) was 315 ng/mL and the half-life (clinical; 30 mg) was 6 h. For the same compound, the Tmax (clinical; 30 mg, Tmax) was 1.5 h and the “tendinitis of the hind limbs” value [7] was “did not cause tendinitis of the hind limbs”.

For CNC(=O)[C@@H](NC(=O)[C@H](CC(C)C)[C@H](O)C(=O)NO)C(C)(C)C [marimastat], the treatment-limiting toxicities ([8]; clinical testing of marimastat, Tierney et al, 1999, Evans et al, 2001) is given as “Musculoskeletal pain and inflammation” and the “AUC achieved at the MTD” value ([8]; phase I studies of marimastat) is given as 2623 ng·h/mL.

Reference: publication PMC2410175, “A phase I and pharmacological study of the matrix metalloproteinase inhibitor BB-3644 in patients with solid tumours” (British Journal of Cancer, 2004)
